Data as given in patent publication US10894787B2, “Modulators of the GPR119 receptor and the treatment of disorders related thereto” (Arena Pharmaceuticals, Inc., priority 2010, dated 2021).

What was measured:
incretin hormone GIP = experiment: In vivo incretin hormone GIP release, Total GIP ELISA on plasma; design: species or system mouse; details: blood sample after 45 min, male 129SVE mice
Procedure: Male 129SVE mice (approximately 8-week old) were fasted for 18 h and randomly grouped (n=6) to receive a GPR119 agonist, (Compound 1), at an oral dose of 0.1, 0.3, 1, 3, 10, or 30 mpk (mg/kg body weight). Compounds were delivered orally via a gavage needle (p.o., volume 4 mL/kg), and after 45 min a blood sample was collected to determine plasma total GIP levels. A separate group received vehicle (PET: 80% PEG400, 10% ethanol, 10% Tween80) as control. Plasma GIP levels were determined using a Total GIP ELISA kit from Millipore.

male 129SVE mice = experiment: Oral glucose tolerance test (oGTT) in male 129SVE mice; format: in vivo, mouse; details: for Plasma Glucose Mean: N = 6; for % Inhibition of Glucose Excursion: AUC reduction relative to vehicle control
Procedure: Male 129SVE mice (approximately 8-week old) were fasted for 18 h and randomly grouped (n=6) to receive a GPR119 agonist, (Compound 1), at 0.3, 3, or 30 mg/kg (mg/kg body weight). The compound was delivered orally via a gavage needle (p.o., volume 4 mL/kg) 30 min prior to glucose bolus (3 g/kg) (time=−30 min in FIG. 3), with a separate group receiving vehicle (20% hydroxypropyl-beta-cyclodextrin) as control. At time 0 min. the glucose bolus was administered. Levels of blood glucose were assessed using a glucometer (One-Touch Ultra™, LifeScan) at time −30 minute (prior to compound administration), at 0 min (at time when glucose bolus was given), and at 20, 40, 60, 120 min post glucose bolus. Glucose excursion (AUC (area under the curve) reduction) in compound treated animals relative to vehicle control is given in FIG. 4, and in Table 4.

GPR119 receptor = target: T1, GPR119 receptor (Homo sapiens, UniProt Q8TDV5); experiment: HTRF assay for direct cAMP measurement in CHO-K1 cells stably expressing the GPR119 receptor; format: cell-based; details: CHO-K1 cells stably expressing GPR119; 1 h incubation at room temperature; read-out: EC50, HTRF cAMP assay
T1 construct: expressed in transfected cells
T1 sequence (Q8TDV5 2-335 limits assumed): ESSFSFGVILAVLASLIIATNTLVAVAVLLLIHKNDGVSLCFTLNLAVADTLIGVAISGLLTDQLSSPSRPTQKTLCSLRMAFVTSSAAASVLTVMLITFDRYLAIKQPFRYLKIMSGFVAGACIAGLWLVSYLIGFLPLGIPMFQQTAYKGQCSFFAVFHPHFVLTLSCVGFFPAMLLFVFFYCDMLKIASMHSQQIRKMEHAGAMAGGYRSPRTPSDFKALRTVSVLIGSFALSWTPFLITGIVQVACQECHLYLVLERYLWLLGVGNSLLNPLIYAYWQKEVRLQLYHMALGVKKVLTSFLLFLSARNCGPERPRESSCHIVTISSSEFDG
Procedure: The GPR119 agonist, Compound 1, was evaluated in an HTRF® cAMP detection assay according to the manufacturer's instructions (Cisbio, cAMP Dynamic 2 Assay Kit; #62AM4PEJ) using CHO-K1 cells stably expressing the GPR119 receptor. Briefly, CHO-K1 cells were transduced with a lentiviral vector encoding the nucleotide sequence of GPR119 (NCBI mRNA and protein reference sequences: NM_178471.2 & NP_848566, (GPR119 has also been referred to as Glucose-Dependent Insulinotropic Receptor (GDIR)). The N-terminus of the GPR119 nucleotide sequence was modified to replace the first, methionine-coding codon with a nucleotide sequence coding for a standard, nine amino acid, hemagglutinin tag. Following transduction, cells expressing the GPR119 receptor were isolated and a single clone was isolated following standard dilution-cloning procedures. On the day of the assay, cultured CHO-GPR119 cells were harvested, suspended in assay buffer and plated into 384-well assay plates (PerkinElmer Proxiplate #6008280) at a density of 2,000 cells per well. A cAMP standard curve was included on each plate. Test compounds were solubilized in DMSO, serially diluted in DMSO and then diluted in assay buffer before adding to the cells. Test compounds were evaluated in triplicate, using 10-point, 5-fold serial dilutions starting at 10 μM. The final DMSO concentration in the assay was 0.5%. Compounds and cells were incubated for 1 h at room temperature and then detection reagents were added to each well (cAMP-D2 in cell lysis buffer, followed by europium cryptate-labeled anti-cAMP antibody). Plates were then incubated at room temperature for 1 h prior to reading. Time-resolved fluorescence measurements were collected on PerkinElmer Envision™ or BMG Pherastar™ microplate readers. The compound N-(2-fluoro-4-(methylsulfonyl)phenyl)-6-(4-(3-isopropyl-1,2,4-oxadiazol-5-yl)piperidin-1-yl)-5-nitropyrimidin-4-amine was used as a positive control in each runset while assay buffer containing 0.5% DMSO was used as the negative control.

**Q.** Which results are given for CN(C)C(=O)c1ccc(Nc2ncnc(N3CCC(c4nc(C(C)(C)F)no4)CC3)c2F)c(F)c1 [Compound 1, 3-fluoro-4-(5-fluoro-6-(4-(3-(2-fluoropropan-2-yl)-1,2,4-oxadiazol-5-yl)piperidin-1-yl)pyrimidin-4-ylamino)-N,N-dimethylbenzamide]?
**A.** Total Plasma GIP in Mice, Total GIP (incretin hormone GIP; 0.1 mg/kg p.o.): 60.92 pg/mL; Total Plasma GIP in Mice, Total GIP (incretin hormone GIP; 0.3 mg/kg p.o.): 68.21 pg/mL; Total Plasma GIP in Mice, Total GIP (incretin hormone GIP; 1 mg/kg p.o.): 183.8 pg/mL; Total Plasma GIP in Mice, Total GIP (incretin hormone GIP; 3 mg/kg p.o.): 318.5 pg/mL; Total Plasma GIP in Mice, Total GIP (incretin hormone GIP; 10 mg/kg p.o.): 444.8 pg/mL; Total Plasma GIP in Mice, Total GIP (incretin hormone GIP; 30 mg/kg p.o.): 695.0 pg/mL; Plasma Glucose Mean (male 129SVE mice; 0.3 mg/kg p.o. 30 min prior to glucose bolus, time 0 min): 74.2 mg/dL; Plasma Glucose Mean (male 129SVE mice; 0.3 mg/kg p.o., 20 min post glucose bolus): 221.3 mg/dL; Plasma Glucose Mean (male 129SVE mice; 0.3 mg/kg p.o., 40 min post glucose bolus): 274.8 mg/dL; Plasma Glucose Mean (male 129SVE mice; 0.3 mg/kg p.o., 60 min post glucose bolus): 258.2 mg/dL; Plasma Glucose Mean (male 129SVE mice; 0.3 mg/kg p.o., 120 min post glucose bolus): 154.5 mg/dL; % Inhibition of Glucose Excursion (male 129SVE mice; 0.3 mg/kg p.o., 129SVE mice): 16.9%; Plasma Glucose Mean (male 129SVE mice; 0.3 mg/kg p.o., time -30 min (prior to compound administration)): 58.5 mg/dL; Plasma Glucose Mean (male 129SVE mice; 3.0 mg/kg p.o. 30 min prior to glucose bolus, time 0 min): 75.2 mg/dL; Plasma Glucose Mean (male 129SVE mice; 3.0 mg/kg p.o., 20 min post glucose bolus): 206.7 mg/dL; Plasma Glucose Mean (male 129SVE mice; 3.0 mg/kg p.o., 40 min post glucose bolus): 233.0 mg/dL; Plasma Glucose Mean (male 129SVE mice; 3.0 mg/kg p.o., 60 min post glucose bolus): 213.5 mg/dL; Plasma Glucose Mean (male 129SVE mice; 3.0 mg/kg p.o., 120 min post glucose bolus): 138.2 mg/dL; % Inhibition of Glucose Excursion (male 129SVE mice; 3 mg/kg p.o., 129SVE mice): 34.8%; Plasma Glucose Mean (male 129SVE mice; 3.0 mg/kg p.o., time -30 min (prior to compound administration)): 63.5 mg/dL; Plasma Glucose Mean (male 129SVE mice; 30.0 mg/kg p.o. 30 min prior to glucose bolus, time 0 min): 78.7 mg/dL; Plasma Glucose Mean (male 129SVE mice; 30.0 mg/kg p.o., 20 min post glucose bolus): 185.8 mg/dL; Plasma Glucose Mean (male 129SVE mice; 30.0 mg/kg p.o., 40 min post glucose bolus): 216.0 mg/dL; Plasma Glucose Mean (male 129SVE mice; 30.0 mg/kg p.o., 60 min post glucose bolus): 191.7 mg/dL; Plasma Glucose Mean (male 129SVE mice; 30.0 mg/kg p.o., 120 min post glucose bolus): 138.7 mg/dL; % Inhibition of Glucose Excursion (male 129SVE mice; 30 mg/kg p.o., 129SVE mice): 42.1%; Plasma Glucose Mean (male 129SVE mice; 30.0 mg/kg p.o., time -30 min (prior to compound administration)): 64.5 mg/dL; Effect on blood glucose after a challenge with glucose (male 129SVE mice; 129SVE mice, 0.3-30 mg/kg p.o.): lowered blood glucose; EC50 (GPR119 receptor): 23.4 nM
